According to PubChem BioAssay (NCI):
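Interpolation was linear, between the two tested concentrations surrounding the appropriate level; five concentrations were tested over 48 hours in 96-well plates. TGI is the concentration that stops growth completely.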 Where a SMILES comes first, the peptide text is derived from it. The star is where a group is joined. Cbz = O=C(OCc1ccccc1)*

Assays:
Assay in all cases: NCI-60 cell line screen, 48 h
[1] = tested on: NCI-H460 lung
[2] = tested on: OVCAR-8 ovarian
[3] = tested on: T-47D breast
[4] = tested on: HL-60(TB) leukemia
[5] = tested on: HOP-92 NSCLC
[6] = tested on: HCC-2998 colon
[7] = tested on: NCI/ADR-RES ovarian
[8] = tested on: CCRF-CEM leukemia
[9] = tested on: EKVX NSCLC
[10] = tested on: UACC-257 melanoma
[11] = tested on: A498 renal
[12] = tested on: SK-MEL-2 melanoma
[13] = tested on: HT29 colon
[14] = tested on: BT-549 breast

SMILES	TGI [1]	TGI [2]	TGI [3]	TGI [4]	TGI [5]	TGI [6]	TGI [7]	TGI [8]	TGI [9]	TGI [10]	TGI [11]	TGI [12]	TGI [13]	TGI [14]
CCOC(=O)N1CCC2(CC1)C[C@](Sc1ccccc1)(C(C)=O)[C@H](C)O2	> 100 µM	> 100 µM	> 100 µM	> 100 µM	> 100 µM	> 100 µM	> 100 µM	> 100 µM	> 100 µM	> 100 µM	> 100 µM	> 100 µM	> 100 µM	
CSC(=Nc1ccccc1)c1c(C)[nH]n(-c2ccccc2)c1=O	> 100 µM	> 100 µM	> 100 µM	> 100 µM		> 100 µM	> 100 µM	> 100 µM	> 100 µM	> 100 µM	> 100 µM	> 100 µM	> 100 µM	> 100 µM
O=[N+]([O-])C(/C(Cl)=C(/Cl)N1CCOCC1)=C1\Nc2ccccc2O1	> 100 µM	> 100 µM	> 100 µM			> 100 µM	> 100 µM	> 100 µM	> 100 µM	> 100 µM	> 100 µM	> 100 µM	> 100 µM	> 100 µM
O=C(CN1CCCCC1)c1ccc2[nH]c(=O)oc2c1	> 100 µM	> 100 µM		> 100 µM			> 100 µM	> 100 µM	> 100 µM	> 100 µM	> 100 µM	> 100 µM	> 100 µM	> 100 µM
COC(=O)C12C(=O)CC3CCC1C32C(=O)OC (stereo not given)	> 100 µM	> 100 µM				> 100 µM	> 100 µM	> 100 µM	> 100 µM	> 100 µM		> 100 µM	> 100 µM	> 100 µM
CN(C(=O)Cc1cc(Cl)c(Cl)cc1NC(=O)CCCN)[C@H]1CCCC[C@@H]1N1CCCC1		> 100 µM	> 100 µM	52.8 µM		37.1 µM	> 100 µM		> 100 µM	33.3 µM	32.4 µM	40.5 µM	47.7 µM	> 100 µM
Cc1cc(C)c2c(-c3ccccc3)cc(=O)[nH]c2c1	> 100 µM	> 100 µM	> 100 µM	> 100 µM		> 100 µM	> 100 µM	> 100 µM	> 100 µM	> 100 µM	> 100 µM	> 100 µM	> 100 µM	
COc1ccc(Nc2nc3ccccc3nc2-c2cccs2)cc1OC	> 10 µM	> 10 µM	> 10 µM	> 10 µM	> 10 µM	> 10 µM	> 10 µM	> 10 µM	> 10 µM	> 10 µM		> 10 µM	> 10 µM	
Cc1cccc(C)c1NC(=S)N/C=C(\C#N)C(N)=O	> 100 µM	> 100 µM			> 100 µM		> 100 µM	> 100 µM	> 100 µM	> 100 µM		> 100 µM	> 100 µM	
OC1C2CN3CCN(C2)CC1(c1ccccc1)C3 (stereo not given)		> 100 µM		> 100 µM			> 100 µM		> 100 µM	> 100 µM	> 100 µM	> 100 µM	> 100 µM	> 100 µM
COc1cc(O)c2c(=O)c3cccc(C)c3[nH]c2c1	> 10 µM	> 10 µM	> 10 µM	> 10 µM		> 10 µM	> 10 µM	> 10 µM	> 10 µM	> 10 µM	> 10 µM	> 10 µM	> 10 µM	> 10 µM
NC(=O)N/N=C(\Cc1cc(=O)oc2cc(O)ccc12)C(=O)Nc1ccccc1C(N)=O	> 100 µM	> 100 µM		> 100 µM	> 100 µM	> 100 µM	> 100 µM	> 100 µM	> 100 µM	> 100 µM		> 100 µM	> 100 µM	> 100 µM
CC(C)(C)c1ccc(O)c(C(O)c2ccccn2)c1 (stereo not given)	> 100 µM	> 100 µM	80.9 µM	> 100 µM		85.9 µM	> 100 µM	> 100 µM	> 100 µM				> 100 µM	> 100 µM
CC(=O)Oc1ccc2c(c1)O/C(=C\c1ccc(N(C)C)cc1)C2=O	> 100 µM	> 100 µM	> 100 µM	> 100 µM		> 100 µM	> 100 µM	> 100 µM	> 100 µM	> 100 µM			> 100 µM	> 100 µM
CC1(N2CCOCC2)CC2C(=[N+]1[O-])CCC/C2=N/O (stereo not given)	> 100 µM	> 100 µM	> 100 µM			> 100 µM	> 100 µM	> 100 µM	> 100 µM	> 100 µM		> 100 µM	> 100 µM	> 100 µM
C#CCOC(=O)C=[N+]=[N-]	> 10 µM	> 10 µM	> 10 µM	> 10 µM	> 10 µM			> 10 µM	> 10 µM	> 10 µM	> 10 µM	> 10 µM	> 10 µM	> 10 µM
CC1=C[C@H](C[C@]2(C)c3c(c4c(C)cccc4oc3=O)O[C@@H]2C)OC1=O	> 100 µM	> 100 µM	> 100 µM	52.5 µM		> 100 µM	> 100 µM	74.7 µM	> 100 µM	> 100 µM	> 100 µM	> 100 µM	> 100 µM	74.7 µM
CC(C)NC1CCCCC2c3ccccc3C12O (stereo not given)	> 100 µM	> 100 µM		> 100 µM				> 100 µM	> 100 µM	> 100 µM		> 100 µM	> 100 µM	
CCOP(=O)(OCC)/C(C#N)=C/c1nc[nH]c1C	> 100 µM	> 100 µM		> 100 µM	> 100 µM	> 100 µM	> 100 µM	> 100 µM	> 100 µM	> 100 µM	> 100 µM	> 100 µM	> 100 µM	> 100 µM

SMILES	TGI [1]	TGI [2]	TGI [3]	TGI [4]	TGI [5]	TGI [6]	TGI [7]	TGI [8]	TGI [9]	TGI [10]	TGI [11]	TGI [12]	TGI [13]	TGI [14]
COc1ccc(/C=C2\C(=O)N(C(=O)c3ccc(NC(C)=O)cc3)N=C2C)cc1OC	> 100 µM	> 100 µM		> 100 µM		> 100 µM		> 100 µM	> 100 µM	> 100 µM		> 100 µM	> 100 µM	
CCN1CC2=C(OC(N)=C(C#N)C2c2ccc(Cl)cc2)/C(=C/c2ccc(Cl)cc2)C1 (stereo not given)	> 100 µM	> 100 µM		> 100 µM	58.6 µM	> 100 µM	> 100 µM	> 100 µM	> 100 µM	> 100 µM	37.5 µM	> 100 µM	> 100 µM	> 100 µM
O=c1[nH]nc(-c2ccc3ccccc3c2)[nH]1	> 100 µM	> 100 µM	> 100 µM	> 100 µM		> 100 µM	> 100 µM	> 100 µM	64.4 µM	> 100 µM	> 100 µM	> 100 µM	> 100 µM	> 100 µM
CCN(CC)P(=O)(c1ccc2c(c1)OCCOCCOCCOCCO2)N(CC)CC	> 100 µM	> 100 µM	> 100 µM	> 100 µM		> 100 µM		> 100 µM	> 100 µM		> 100 µM			> 100 µM
CCOC(=O)c1nc(SC)sc1NC(=O)c1ccc(OC)cc1	> 100 µM	> 100 µM	> 100 µM	> 100 µM	> 100 µM	> 100 µM	> 100 µM	> 100 µM	> 100 µM	> 100 µM	84.6 µM	> 100 µM	> 100 µM	
CN(C)N1C(=C(C#N)C#N)C(c2ccccc2)CC1C#N (stereo not given)		> 100 µM	> 100 µM	> 100 µM	> 100 µM	> 100 µM	> 100 µM	> 100 µM	> 100 µM	> 100 µM	> 100 µM	> 100 µM	> 100 µM	
Cc1cc2c3c(c1)S(=O)(=O)c1cc(Cl)ccc1N3CCC2	> 100 µM	> 100 µM		> 100 µM	> 100 µM	> 100 µM	> 100 µM	> 100 µM	> 100 µM	> 100 µM	> 100 µM	> 100 µM	> 100 µM	> 100 µM
C[C@]12C(=O)OC[C@H](c3ccccc3)N1C(=O)N(Cc1ccccc1)[C@@H]2CO	> 100 µM	> 100 µM		> 100 µM	> 100 µM	> 100 µM	> 100 µM	> 100 µM	> 100 µM	> 100 µM	> 100 µM	> 100 µM	> 100 µM	> 100 µM
COc1cc2c(c3nc4ccccc4nc13)-c1ccc(SC)c(=O)cc1[C@@H](NC(C)=O)CC2	> 100 µM				> 75.1 µM		53 µM	> 100 µM	0.795 µM	> 100 µM	> 65.1 µM	> 100 µM		
CCO/C(O)=c1/s/c(=C2/SC(=S)N(c3ccc(C)cc3)C2=O)n(-c2ccccc2)c1=N	> 100 µM	> 100 µM		> 100 µM	> 100 µM	> 100 µM	> 100 µM	> 100 µM	> 100 µM	> 100 µM	> 100 µM	> 100 µM	> 100 µM	> 100 µM
COC(=O)c1sc2nc(Nc3ccccc3)c(=Nc3ccccc3)sc2c1C	> 100 µM	> 100 µM	> 100 µM	> 100 µM	92 µM	> 100 µM	> 100 µM	> 100 µM	> 100 µM	> 100 µM	> 100 µM	> 100 µM	> 100 µM	
CN1CCN(c2n[nH]c(=O)c3c2nnn3Cc2ccccc2)CC1	> 100 µM	> 100 µM		> 100 µM	> 100 µM	> 100 µM	> 100 µM	> 100 µM	> 100 µM	> 100 µM		> 100 µM	> 100 µM	> 100 µM
C/C(=N/NC(=S)N1CCCCCC1)c1cccc(/C(C)=N\NC(=S)N2CCCCCC2)n1	6.78 µM	3.11 µM	5.95 µM	5.26 µM	3.58 µM	6.38 µM	3.86 µM		7.98 µM	3.45 µM	2.85 µM	3.81 µM	4.65 µM	
CCN(CC)c1c(-c2c(OC(C)C)c(=O)c2=O)c(=O)n2ccsc2c1OC(C)=O	> 100 µM	> 100 µM		> 100 µM	> 100 µM	> 100 µM	> 100 µM	> 100 µM	> 100 µM	> 100 µM	> 100 µM	> 100 µM	> 100 µM	> 100 µM
CCCCCCCCCCCCCOCCOCCOCCCCC(O)CCCCCCCCCC1=C[C@H](C)OC1=O (stereo not given in full)	> 100 µM	> 100 µM	> 100 µM	16 µM		74.4 µM	41.4 µM	> 100 µM		37.7 µM		63 µM	57.6 µM	27.9 µM
CN(C)c1ccc(-c2c(C#N)c(-c3ccccc3)n(NS(=O)(=O)c3ccccc3)c(=O)c2C#N)cc1	> 100 µM	> 100 µM			> 100 µM	> 100 µM	> 100 µM	83.5 µM	> 100 µM	> 100 µM	> 100 µM	> 100 µM	> 100 µM	> 100 µM
CCOC(=O)CCC(NC(=O)C(CC(=O)OC)NC(=O)OCc1ccccc1)C(=O)NC(CC(=O)OC)C(=O)NC(CCC(=O)OCC)C(=O)NC(CC(=O)OC)C(=O)NC(CCC(=O)OCC)C(=O)NC(CC(=O)OCC)C(=O)OCC (stereo not given) (Cbz-D(OMe)E(OEt)D(OMe)E(OEt)D(OMe)E(OEt)D(OEt)-OEt; configuration not given here)	> 100 µM	> 100 µM	> 100 µM	> 100 µM		> 100 µM		> 100 µM		> 100 µM	> 100 µM	> 100 µM	> 100 µM	> 100 µM
CC(C)C(Sc1nc(-c2ccccc2)c(-c2ccccc2)[nH]1)C(=O)N/N=C/c1ccc(Cl)cc1 (stereo not given)	52.8 µM	53.6 µM		56.6 µM	54.2 µM			85.4 µM	67.6 µM	53.7 µM	43.2 µM	36.5 µM	36.9 µM	
